Measured values reported in patent US12433858B2, “Substituted cycloalkanes for managing nephrogenic diabetes insipidus” (NephroDI Therapeutics, Inc., priority 2017, dated 2025).
Entries after “also recorded” stand apart in the source; their conditions may differ.

How the values were obtained:
[1] = system: Tolvaptan induced NDI rats; experiment: Tolvaptan-induced NDI rat model, urine concentration; type: in vivo
Procedure: Rats were given tolvaptan to induce NDI. Tolvaptan binds to and blocks the vasopressin type 2 receptor (V2R) and renders the animals insensitive to vasopressin-induced antidiuresis. The efficacy of three compounds of Formula I were evaluated. Each rat was gavage fed with 10 mg/kg/day of tolvaptan in the carrier solution (1% hydroxypropylmethyl cellulose in water) for 3 days to prepare the NDI model. The drugs were added to the gavage feeding solution and delivered daily for 4 days (NDI-5001, 200 mg/kg/day; NDI-5033 or NDI-5037, 50 mg/kg/day). Control rats were sham gavage fed.
(§1) NDI-5033 was tested to determine an initial time course and sustainability of the anti-diuretic response. Rats were given tolvaptan to initiate NDI. They were then fed 100 mg/kg/day with NDI-5033 for 3 days (FIG. 2A). […] To ensure that the observed efficacy is not compromised by potential binding of NDI-5033 to V2R, NDI-5033 was given to mice in which the V2R was genetically knocked out yielding a genetic model of NDI (FIG. 2B). Control mice received no drug. NDI-5033 was given by injection to the mice and 24-hour urine collected and assessed for urine osmolality. NDI-5033 produced a 50% improvement in urine concentration.
(§2) Tolvaptan induced NDI rats were prepared and fed with doses of NDI-5033 from 0 to 100 mg/kg/day in a series of experiments. […] To confirm the effectiveness of the 25 mg/kg/day dose, NDI-5033 was given to V2R knock-out NDI mice and 24-hour urines were assessed for urine osmolality (FIG. 3B). The osmolality was increased in NDI mice after treatment with 25 mg/kg/day of NDI-5033.
(§3) An experiment was designed to approximate hypoglycemia in the tolvaptan-treated rat NDI model to look for hypoglycemia. A timeline for the experiment is illustrated in FIG. 4A. The rats were given tolvaptan beginning Day negative 3. On Day zero half of the rats started to receive 25 mg/kg/day of NDI-5033. After observing an improvement in the urine concentration, the animals were exercised daily for 5 days. Food was removed from the animals and NDI-5033 was given, then 4 hours later rats were subjected to 30 minutes of treadmill running. Blood glucose measurements were taken before and after the bout of exercise. Food was restored. The process was repeated daily for 5 days. The average urine osmolality and urine volumes in the NDI rats not receiving NDI-5033 (control) or receiving 25 mg/kg/day NDI-5033 is shown in FIG. 4B. Urine osmolality was increased (p<0.05) and urine volume decreased (p<0.07) upon drug treatment. […] For each day, patterned bars are from rats not receiving NDI-5033. The leftmost bar (diagonal) is before and to the right is after exercise. The next two bars show blood glucose values for rats receiving NDI-5033. Solid black is before and solid white is after exercise.

V2R knock-out NDI mice = experiment: V2R knock-out mouse genetic model of NDI, 24-hour urine osmolality; type: in vivo
Procedure: as §1, §2

[2] = Hypoglycemia evaluation on chronic dosing in exercised tolvaptan-treated NDI rats (blood glucose); type: in vivo, rat; conditions: 25 mg/kg/day, daily for 5 days
Procedure: as §3

[3] = 100 mg/kg/day for 3 days, tolvaptan NDI rats
[4] = food removed, 30 minutes treadmill 4 hours after dose

Structure (SMILES) | average urine osmolality (in words) ([1]; 25 mg/kg/day versus control NDI rats, exercise study, p<0.05, FIG. 4B) | average urine volume (in words) ([1]; 25 mg/kg/day versus control NDI rats, exercise study, p<0.07, FIG. 4B) | duration for which anti-diuretic response is sustained [1, 3] [days] | time to anti-diuretic effect after initial treatment [1, 3] [h] | urine concentrating ability (urine osmolality) as percent of untreated, fully concentrating rats (basal, set to 100%) ([1]; NDI-5033 50 mg/kg/day by gavage daily for 4 days, after tolvaptan 10 mg/kg/day for 3 days) | dose showing statistically significant improvements in urine concentrations ([1]; dose response 0 to 100 mg/kg/day, FIG. 3A) [mg/kg/day] | urine osmolality (in words) ([1]; dosed with NDI inducing agent tolvaptan, FIG. 2A, 100 mg/kg/day for 3 days) | efficacy / urine concentrating ability (in words) ([1]; gavage daily for 4 days, NDI-5001 200 mg/kg/day, NDI-5033 or NDI-5037 50 mg/kg/day, tolvaptan NDI rats) | urine osmolality (in words) (V2R knock-out NDI mice; 25 mg/kg/day, 24-hour urines, FIG. 3B) | improvement in urine concentration (V2R knock-out NDI mice; given by injection, 24-hour urine, versus control mice receiving no drug) [%] | hypoglycemia ([2]; exercised NDI rats) | blood glucose before versus after exercise [2, 4] | blood glucose relative to normal range for rats [2, 4] | urine osmolality as percent of the normal animal ([1]; tolvaptan 10 mg/kg/day by gavage for 3 days, NDI induction)
NC(=O)C1(CCCCCCCCCCCCC2(C(N)=O)CC2)CC1 [NDI-5033, 1,1′-(dodecane-1,12-diyl)bis(cyclopropane-1-carboxamide)] | increased | decreased | 3 | ≤ 24 | 75 % of normal | ≥ 10 | increases urine osmolality | improve urine concentrating ability | increased | 50 | no evidence of hypoglycemia; also recorded: do not experience hypoglycemia | no statistical difference | within the normal range | –
Cc1ccccc1C(=O)Nc1ccc(C(=O)N2CCCC(O)c3cc(Cl)ccc32)c(C)c1 (centres unmarked) [tolvaptan, reference compound] | – | – | – | – | – | – | – | – | – | – | – | – | – | 10 % of the normal animal
